Where only a bound is given, the exact number is not on record here.

The subject of one test is mdx hearts.
Experiment: not given
Conditions: cited from earlier work.
In the case of `CCCc1nn(C)c2c(=O)[nH]c(-c3cc(S(=O)(=O)N4CCN(C)CC4)ccc3OCC)nc12` [sildenafil], the myocardial contractile performance entry is reported as “prevents deterioration”.

A further test concerns Primary cultures of skeletal muscle cells. Nature of the test: Primary cultures of skeletal muscle cells treated with GTE and EGCG (MyHC staining, Western blot). It counts as cell-based, mice. The settings on record: Western blot, myotube cultures treated for 7 days. The procedure: GTE and EGCG also display unexpected pro myogenic properties. Primary cultures of skeletal muscle cells were established from both normal and dystrophic mice and treated with GTE and EGCG for 1-7 days. […] The amount of myotubes reached similar level with both agents compared to control thereafter. Western-blot analysis was performed on myotube cultures treated for 7 days.
Background: A western blot detects proteins with antibodies after separation by electrophoresis.
On to `O=C(O[C@@H]1Cc2c(O)cc(O)cc2O[C@@H]1c1cc(O)c(O)c(O)c1)c1cc(O)c(O)c(O)c1` [EGCG, epigallocatechin gallate], for which the expression of desmin entry is “down-regulated”; the “expression of muscle-specific proteins (dystrophin in control cultures, sarcomeric alpha actinin, MyHC)” value is on record as “promoted the expression”; the myogenin expression result was “unchanged”.

Staying with this test, now noted: within the first 2-4 days of application; normal and dystrophic mice cells.
For `O=C(O[C@@H]1Cc2c(O)cc(O)cc2O[C@@H]1c1cc(O)c(O)c(O)c1)c1cc(O)c(O)c(O)c1` [EGCG, epigallocatechin gallate], the “rate of formation of myotubes (in situ staining of MyHC)” value is “concentration-dependently stimulated”.

The next test has as its system Utrophin A promoter linked to a luciferase reporter gene (H2K/mdx/Utro A reporter cell line). Nature of the test: Luciferase reporter assay (murine H2K cells). Type of test: cell-based. The settings on record: Mus musculus; final concentration of 10 μM; incubated for a further 48 hrs. The procedure:
The cell line used for the screen is an immortalized mdx mouse H2K cell line that has been stably transfected with a plasmid containing ≈5 kb fragment of the Utrophin A promoter including the first untranslated […] linked to a luciferase reporter gene.
Under conditions of low temperature and interferon containing media, the cells remain as myoblasts. These are plated into 96 well plates and cultured in the presence of compound for three days. The level of luciferase is then determined by cell lysis and reading of the light output from the expressed luciferase gene utilising a plate luminometer.
The H2K/mdx/Utro A reporter cell line was passaged twice a week until ≦30% confluent. The cells were grown at 33° C. in the presence of 10% CO2
To remove the myoblasts for platting, they were incubated with Trypsin/EDTA until the monolayer started to detach.
• DMEM Gibco 41966 • 20% FCS • 1% Pen/Strep • 1% glutamine • 10 mls Chick embryo extract • Interferon(1276 905 Roche) Add fresh 10 μl/50 mls medium
The H2K/mdx/Utro A reporter cell line cells were plated out into 96 well plates (Falcon 353296, white opaque) at a density of approximately 5000 cells/well in 190 μl normal growth medium. The plates were then incubated at 33° C. in the presence of 10% CO2 for 24 hrs.
Compounds were dosed by adding 10 μl of diluted compound to each well giving a final concentration of 10 μM. The plates were then incubated for a further 48 hrs
Cells were then lysed in situ following the manufacture's protocols (Promega Steady-Glo Luciferase Assay System (E2520). Then counted for 10 seconds using a plate luminometer (Victor1420).
(In general: A reporter such as luciferase makes a cellular process visible.)
As to `CCS(=O)(=O)c1ccc2nn(-c3ccc(Cl)cc3)nc2c1` [Example 52, 2-(4′-chlorophenyl)-5-(ethylsulfonyl)-benzotriazole], the activity at 10 µM was above 401%.
With `CCC(=O)Nc1ccc2nn(-c3ccc(N(CC)CC)cc3)nc2c1` [Example 23, N-(2-(4-(diethylamino)phenyl)-2H-benzo[d][1,2,3]triazol-5-yl)propionamide], the activity at 10 µM was below 200%.
Regarding `CCCC(=O)Nc1cc2nn(-c3ccc(N(CC)CC)cc3)nc2cc1C` [Example 15, N-(2-(4-(diethylamino)phenyl)-6-methyl-2H-benzo[d][1,2,3]triazol-5-yl)butyramide], the activity at 10 µM was below 200%.
On to `CCN(CC)c1ccc(-n2nc3ccc(NC(=O)c4cccs4)cc3n2)cc1` [Example 28, N-(2-(4-(diethylamino)phenyl)-2H-benzo[d][1,2,3]triazol-5-yl)thiophene-2-carboxamide], for which the activity at 10 µM is below 200%.
The same measure, in the same setting: with `CCCCC(=O)Nc1cc2nn(-c3ccc(Cl)cc3)nc2cc1C` [Example 9, N-(2-(4-chlorophenyl)-6-methyl-2H-benzo[d][1,2,3]triazol-5-yl)pentanamide] the figure was 201 to 300%; with `CN(C)c1ccc(-n2nc3ccc(N)cc3n2)cc1` [Example 41, 2-(4-(dimethylamino)phenyl)-2H-benzo[d][1,2,3]triazol-5-amine], 301 to 400%.
As to `CC(C)C(=O)Nc1ccc2nn(-c3ccc(Cl)cc3)nc2c1` [Example 37, N-(2-(4-chlorophenyl)-2H-benzo[d][1,2,3]triazol-5-yl)isobutyramide], the activity at 10 µM is above 401%.
Consider `Cc1cc2nn(-c3ccc(Cl)cc3)nc2cc1NC(=O)c1ccco1` [Example 11, N-(2-(4-chlorophenyl)-6-methyl-2H-benzo[d][1,2,3]triazol-5-yl)furan-2-carboxamide], for which the activity at 10 µM fell in the range of 201 to 300%.
Take `CCOc1ccc(-n2nc3cc(C)c(N)cc3n2)cc1` [Example 64, 2-(4-ethoxyphenyl)-6-methyl-2H-benzo[d][1,2,3]triazol-5-amine]: the activity at 10 µM lay within 201 to 300%.
For `CCc1ccc(-n2nc3ccc(N)cc3n2)cc1` [Example 68, 2-(4-ethylphenyl)-2H-benzo[d][1,2,3]triazol-5-amine], the activity at 10 µM lay in the range of 201 to 300%.
Same read-out and setting: for `Cc1cc2nn(-c3ccc(N4CCOCC4)cc3)nc2cc1N` [Example 34, 6-methyl-2-(4-morpholinophenyl)-2H-benzo[d][1,2,3]triazol-5-amine] the value was 201 to 300%; for `CC(C)C(=O)Nc1ccc2nn(-c3ccc(Cl)c(Cl)c3)nc2c1` [Example 53, N-(2-(3,4-Dichlorophenyl)-2H-benzo[d][1,2,3]triazol-5-yl)isobutyramide], above 401%.
Same read-out and setting: for `CS(=O)(=O)c1ccc2cn(-c3ccc(Cl)cc3)nc2c1` [Example 44, 2-(4-chlorophenyl)-6-(methylsulfonyl)-2H-indazole] the value was 201 to 300%; for `CCN(CC)c1ccc(-n2nc3ccc(NC(=O)c4ccc(Cl)cc4)cc3n2)cc1` [Example 32, 4-chloro-N-(2-(4-(diethylamino)phenyl)-2H-benzo[d][1,2,3]triazol-5-yl)benzamide], below 200%; for `Cc1ccc(-n2nc3ccc(N)cc3n2)cc1C` [Example 63, 2-(3,4-dimethylphenyl)-2H-benzo[d][1,2,3]triazol-5-amine], below 200%.
Still for that read-out and setting: with `CCCCC(=O)Nc1cc2nn(-c3ccc(N(CC)CC)cc3)nc2cc1C` [Example 16, N-(2-(4-(diethylamino)phenyl)-6-methyl-2H-benzo[d][1,2,3]triazol-5-yl)pentanamide] the figure was below 200%.
`Clc1ccc(-n2cc3ccccc3n2)cc1` [Example 48, 2-(4-chlorophenyl)-2H-indazole]: the activity at 10 µM is above 401%.
Still for that read-out and setting: with `CCCCC(=O)Nc1ccc2nn(-c3ccc(N(CC)CC)cc3)nc2c1` [Example 25, N-(2-(4-(diethylamino)phenyl)-2H-benzo[d][1,2,3]triazol-5-yl)pentanamide] the figure was below 200%; with `CCN(CC)c1ccc(-n2nc3cc(C)c(NC(=O)C(C)C)cc3n2)cc1` [Example 17, N-(2-(4-(diethylamino)phenyl)-6-methyl-2H-benzo[d][1,2,3]triazol-5-yl)isobutyramide], below 200%.
The same measure, in the same setting: with `Cc1cc2nn(-c3ccc(Cl)cc3)nc2cc1NC(=O)c1ccncc1` [Example 2, N-(2-(4-chlorophenyl)-6-methyl-2H-benzo[d][1,2,3]triazol-5-yl)isonicotinamide] the figure was 201 to 300%; with `CCCC(=O)Nc1cc2nn(-c3ccc(Cl)cc3)nc2cc1C` [Example 8, N-(2-(4-chlorophenyl)-6-methyl-2H-benzo[d][1,2,3]triazol-5-yl)butyramide], 201 to 300%; with `CCN(CC)c1ccc(-n2nc3cc(C)c(NC(=O)c4cccnc4)cc3n2)cc1` [Example 12, N-(2-(4-(diethylamino)phenyl)-6-methyl-2H-benzo[d][1,2,3]triazol-5-yl)nicotinamide], 301 to 400%.
The same measure, in the same setting: with `Cc1ccc(-n2nc3cc(C)c(N)cc3n2)cc1` [Example 65, 6-methyl-2-p-tolyl-2H-benzo[d][1,2,3]triazol-5-amine] the figure was 201 to 300%.
As for `CCN(CC)c1ccc(-n2nc3cc(C)c(NC(=O)c4ccncc4)cc3n2)cc1` [Example 13, N-(2-(4-(diethylamino)phenyl)-6-methyl-2H-benzo[d][1,2,3]triazol-5-yl)isonicotinamide], the activity at 10 µM is 301 to 400%.

Source of the values: patent publication US20100168072A1, “Drug Combinations for the Treatment of Duchenne Muscular Dystrophy” (BIOMARIN IGA LIMITED, priority 2007, published 2010).
